These results are taken from paper PMC8800105 (The Journal of Biological Chemistry, 2021).

The assay addresses TRPA1 (Homo sapiens, UniProt O75762). Briefly: whole-cell patch clamp in HEK293. It counts as cell-based.

Chain of TRPA1 (O75762 whole entry): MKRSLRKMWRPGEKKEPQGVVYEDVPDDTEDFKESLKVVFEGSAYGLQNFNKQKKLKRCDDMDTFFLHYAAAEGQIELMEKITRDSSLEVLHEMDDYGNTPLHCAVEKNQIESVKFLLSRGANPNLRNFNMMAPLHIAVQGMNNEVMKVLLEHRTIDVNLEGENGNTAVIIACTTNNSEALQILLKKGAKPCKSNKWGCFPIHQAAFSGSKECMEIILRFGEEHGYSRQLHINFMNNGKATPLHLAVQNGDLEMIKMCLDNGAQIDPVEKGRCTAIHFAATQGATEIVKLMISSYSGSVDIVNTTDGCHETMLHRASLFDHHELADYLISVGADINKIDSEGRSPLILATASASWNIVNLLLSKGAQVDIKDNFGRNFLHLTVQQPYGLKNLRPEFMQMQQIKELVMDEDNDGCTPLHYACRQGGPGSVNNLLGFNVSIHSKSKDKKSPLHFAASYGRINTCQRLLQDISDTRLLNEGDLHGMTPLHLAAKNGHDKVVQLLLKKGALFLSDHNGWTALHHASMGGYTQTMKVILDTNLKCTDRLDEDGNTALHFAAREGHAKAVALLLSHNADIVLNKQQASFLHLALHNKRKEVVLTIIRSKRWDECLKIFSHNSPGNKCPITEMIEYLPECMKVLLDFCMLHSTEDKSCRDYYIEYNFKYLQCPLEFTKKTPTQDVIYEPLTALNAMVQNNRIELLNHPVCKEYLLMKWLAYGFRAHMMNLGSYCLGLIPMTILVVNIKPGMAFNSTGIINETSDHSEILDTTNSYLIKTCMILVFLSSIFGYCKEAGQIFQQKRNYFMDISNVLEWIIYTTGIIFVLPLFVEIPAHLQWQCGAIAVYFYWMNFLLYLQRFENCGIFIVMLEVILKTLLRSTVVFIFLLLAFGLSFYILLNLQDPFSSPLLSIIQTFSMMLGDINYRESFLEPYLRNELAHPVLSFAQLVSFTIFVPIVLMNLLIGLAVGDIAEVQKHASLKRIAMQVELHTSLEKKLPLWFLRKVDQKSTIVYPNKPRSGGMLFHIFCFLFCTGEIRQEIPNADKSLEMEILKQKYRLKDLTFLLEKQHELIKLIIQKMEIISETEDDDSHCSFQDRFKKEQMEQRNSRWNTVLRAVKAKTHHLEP

`O=[N+]([O-])c1ccc(Cl)c([N+](=O)[O-])c1` [DNCB] yielded an EC50 of 42.4 ± 20.9 µM.
The compound `O=[N+]([O-])c1ccc(F)c([N+](=O)[O-])c1` [DNFB] displayed an EC50 of 2.3 ± 0.7 µM.

As usually defined, the EC50 is the concentration at which the effect is half-maximal. A low value points to higher potency in that assay.
